A melting point compilation (Tetko et al.)

melting point [°C] | Structure (SMILES)
216 to 218 | O=C(CCn1ccnc1)Nc1cccc(C(=O)O)c1
92 to 94 | Cc1ccc(C)c(-c2nc(N)sc2C)c1
67 to 69 | Nc1cccc(COc2ccc3c(c2)OCO3)c1
229 to 231 | CS(=O)(=O)c1ccc2c(c1)NC(=O)CO2
42 to 44 | OCC#Cc1ccc(Oc2ccccc2)cc1
213 to 215 | Cn1ncc(C(=O)O)c1-c1ccccc1
126 to 128 | Cc1ccc(OCCCC(=O)O)c(C)c1
172 to 174 | O=C(CCl)N1CC=C(c2c[nH]c3ccccc23)CC1
238 to 240 | COc1ccc(-n2ccnc2S)c(C)c1
72 to 74 | NCc1ccc(Cn2cnc3ccccc32)cc1
172 to 174 | NC(Cc1cccc2cccnc12)=NO
89 to 91 | COCCOc1ccc(Cl)c(C(=O)O)n1
79 to 81 | CC1(c2ccccc2)CC(=O)NC1=O (stereo unspecified)
269 to 271 | Cc1ccc(C(N)C(=O)O)cc1 (stereo unspecified)
151 to 153 | CCc1cc(=O)[nH]c(-c2cccnc2)n1
188 to 190 | O=C(CC1SC(N2CCCCC2)=NC1=O)Nc1cccc(C(=O)O)c1 (stereo unspecified)
45 to 47 | CCCOc1ccc(OCCBr)cc1
162 to 164 | Cc1cc(N)ccc1C(=O)N(C)C
203 to 205 | Nc1ccc(-c2nnc[nH]2)cc1
162 to 164 | Cc1ccc(N(C)S(=O)(=O)c2cccc(C(=O)O)c2)cc1
120 to 122 | Cc1ccc(NC(=O)C(Cl)c2ccccc2)cc1Cl (stereo unspecified)
84 to 86 | Nc1ccc(-c2nccn2C(F)F)cc1
100 to 102 | NC(=O)c1ccc(C=O)cc1
248 to 250 | O=C1COc2cc(S(=O)(=O)Cl)c(Cl)cc2N1
142 to 144 | O=C(O)c1ccn(-c2cccc(Br)c2)n1
169 to 171 | O=C1CNc2ccc(Br)cc2N1

More lines, now with the values behind:

Structure (SMILES) | melting point [°C]
OC1CC2CCCC(C1)N2Cc1ccccc1 (stereo unspecified) | 57 to 59
CC(C)c1cccc(C(=O)O)n1 | 63 to 65
O=C1CCCc2sc(Br)cc21 | 76 to 78
O=C(O)c1ccc(F)c2ccsc12 | 230 to 232
CCN(CC)S(=O)(=O)c1ccc(NC(=O)CCl)cc1 | 103 to 105
Cc1nn(C)c(-n2cncn2)c1N | 96 to 98
N#CC(=Cc1ccco1)C(=O)O | 227 to 229
Cc1nn(C)c(C(F)(F)Cl)c1C(=O)O | 122 to 124
O=C(O)C=NNc1ccc(F)cc1 | 87 to 89
CC(C)(C)c1nc(C(=O)O)cs1 | 126 to 128
Cc1cc(I)ccc1[N+](=O)[O-] | 79 to 81
NCCCNc1ccc(C(F)(F)F)cn1 | 48 to 50
O=C(O)CC1SC(=NN=Cc2ccc(Br)s2)NC1=O (stereo unspecified) | 278 to 280
Clc1nc(-c2cccnc2)nc2sc3c(c12)CCCC3 | 137 to 139
O=C(CCl)N1CCN(S(=O)(=O)c2ccccc2Cl)CC1 | 215 to 217
Cn1cc(N2CCNCC2=O)cn1 | 123 to 125
Cc1nnc(Cl)c(C#N)c1C | 61 to 63
Cc1cc(Cl)c([N+](=O)[O-])cc1S(=O)(=O)Cl | 116 to 118
Nc1ccc(NC(=O)C2CCCO2)cc1C(F)(F)F (stereo unspecified) | 64 to 66
O=C(O)C(=O)Cc1ccc(Cl)cc1 | 192 to 194
Cc1cccc(C)c1C=O | 27 to 30
O=Cc1cn(-c2ccccc2)nc1-c1ccc(-c2nn(-c3ccccc3)cc2C=O)cc1 | 271 to 273
Clc1cc(Cl)c2c(n1)NCC2 | 149 to 151
O=C(Nc1cnccn1)C1CCNCC1 | 131 to 133
CC(C)Oc1cc(C(=O)O)ccn1 | 145 to 147
COC(=O)c1ccc(Cl)cc1S(=O)(=O)Cl | 63 to 65
N#Cc1cccnc1N1CCC(C(N)=O)CC1 | 177 to 179
CCCCc1ccc(NC(=O)/C=N/O)cc1 | 120 to 122
CN(C)C(N)=S | 144 to 146
COc1ccccc1C(C)(C)C(=O)O | 121 to 123
